pIC50: −log10 of the molar value.
System: MDA-MB-436 cells
Assay: Inhibition of proliferation of human breast cancer MDA-MB-436 cell line (CCK-8, 7 days)
Format: cell-based
Settings: Homo sapiens, 168 h, proliferation of MDA-MB-436, 7 days
Procedure: The cells were cultured in complete medium (DMEM medium +10% FBS+Insulin+glutathione). When the confluence reached about 80%, cells were digested and gently dispensed from the bottom of the dish with a 1 mL pipette. Cell suspension was collected and centrifuged at 500 rpm for 3 min. The supernatant was discarded, and the cell pellet were re-suspended in complete medium. The cells were seeded into a culture dish at an appropriate proportion, and then cultured in a 5% CO2 incubator at 37° C. The assay was carried out when the cells were in optimum condition and the confluence was reached 80%. Cells were harvested in the logarithmic growth phase by using 1 mL pipette gently and then centrifugated at 500 rpm for 3 min. The cells were resuspended by using refresh medium after removing the supernatant and then the cells were counted. The cells were seeded at 3000/well in a 96 well plate and incubated at 37° C. 5% CO2 incubator overnight. In the second day, cells were treated with compound at 8 serially diluted dose with 1000×final concentration in 100% DMSO. The compound was prepared as below: 1000×dilution tested compound solution to 40×test compound solution by adding 5μL, 1000×compound solution to 120 μL Medium (25-fold dilution). The solution was mixed by oscillation. DMSO was used as the control.
The medium was removed from the wells in the plate after the plate was taken out from incubator. Then, fresh medium of 195 μL/per well was added to the 96 well plate. 5μL/per well of 40×test compound solution was added into the 96 well plate. Finally, the plate was incubated for 7 days in a 37° C. 5% CO2 incubator. The medium containing compound was changed once on the fourth day. After 7 days, 20 μL of CCK-8 was added to each well and shake gently, then was cultured for 4 hours. The plate was shaken for 5 min after incubation, the absorbance values of 450 nm. and 650nm wavelengths were recorded respectively (OD=absorbance value of 450 nm−absorbance value of 650 nm) by using the multifunction readout instrument.
Data were analyzed by software GraphPad Prism 6.0. The inhibitory activity of compounds on cell proliferation was plotted using cell survival rate against the compound concentration as coordinates. Cell survival rate %=(ODcompound−ODbackground)/(ODDMSO−ODbackground)×100. The IC50 value was fitted by the s-shaped dose response curve equation: Y=100/(1+10^(log C−log IC50)), and C was the compound concentration.
Table 2 summarizes the inhibitory effect data (IC50) of the compounds on the proliferation of human breast cancer cells MDA-MB-436, wherein ++++ indicates 1<IC50≤10 nM; +++ indicates 10 nM<IC50≤100 nM; ++ indicates 100 nM<IC50≤1 μM; + indicates IC50>1 μM.

Compound | pIC50
CNC(=O)c1ccc(N2CCN(Cc3cnc4c(=O)n(C)c(=O)[nH]c4c3)CC2)cn1 [Example 2, 5-(4-((3-methyl-2,4-dioxo-1,2,3,4-tetrahydropyrido[3,2-d]pyrimidin-7-yl)methyl)piperazin-1-yl)-N-methylpicolinamide] | < 6.00
CCn1c(=O)[nH]c2cc(CN3CCN(c4ccc(C(=O)NC)nc4)CC3)ncc2c1=O [Example 5, 5-(4-((3-ethyl-2,4-dioxo-1,2,3,4-tetrahydropyrido[4,3-d]pyrimidin-7-yl)methyl)piperazin-1-yl)-N-methylpicolinamide] | < 6.00
CCn1c(=O)[nH]c2cc(CN3CCN(c4ccc(C(=O)NC)nc4F)CC3)cnc2c1=O [Example 9, 5-(4-((3-ethyl-2,4-dioxo-1,2,3,4-tetrahydropyrido[3,2-d]pyrimidin-7-yl)methyl)piperazin-1-yl)-6-fluoro-N-methylpicolinamide] | 6.00 to 7.00
CNC(=O)c1ccc(N2CCN(Cc3ccc4c(=O)n(CCF)c(=O)[nH]c4c3)CC2)c(C)n1 [Example 20, 5-(4-((3-(2-fluoroethyl)-2,4-dioxo-1,2,3,4-tetrahydroquinazolin-7-yl)methyl)piperazin-1-yl)-N,6-dimethylpicolinamide] | 6.00 to 7.00
CCn1c(=O)[nH]c2cc(CN3CCN(c4ccc(C(=O)NC)nc4C(F)(F)F)CC3)ccc2c1=O [Example 23, 5-(4-((3-ethyl-2,4-dioxo-1,2,3,4-tetrahydroquinazolin-7-yl)methyl)piperazin-1-yl)-N-methyl-6-(trifluoromethyl)picolinamide] | 6.00 to 7.00
CCn1c(=O)[nH]c2cc(CN3CCN(c4ccc(C(=O)NC)nc4C(F)F)CC3)ccc2c1=O [Example 35, 5-(4-((3-ethyl-2,4-dioxo-1,2,3,4-tetrahydroquinazolin-7-yl)methyl)piperazin-1-yl)-6-(difluoromethyl)-N-methylpicolinamide] | 6.00 to 7.00
CCn1c(=O)[nH]c2cc(CN3CCN(c4ccc5c(c4)CCN(C)C5=O)CC3)ccc2c1=O [Example 36, 3-ethyl-7-((4-(2-methyl-1-oxo-1,2,3,4-tetrahydroisoquinolin-6-yl)piperazin-1-yl)methyl)quinazoline-2,4(1H,3H)-dione] | < 6.00
CCn1c(=O)[nH]c2cc(CN3CCN(c4ccc5c(c4)CCNC5=O)CC3)ccc2c1=O [Example 37, 3-ethyl-7-((4-(1-oxo-1,2,3,4-tetrahydroisoquinolin-6-yl)piperazin-1-yl)methyl)quinazoline-2,4(1H,3H)-dione] | < 6.00
CCn1c(=O)[nH]c2cc(CN3CCN(c4ccn5c(=O)ccnc5c4)CC3)ccc2c1=O [Example 38, 3-ethyl-7-((4-(4-oxo-4H-pyrido[1,2-a]pyrimidin-8-yl)piperazin-1-yl)methyl)quinazoline-2,4(1H,3H)-dione] | < 6.00
CCn1c(=O)[nH]c2cc(CN3CCN(c4ccc(C(=O)N(C)C)nc4F)CC3)ccc2c1=O [Example 39, 5-(4-((3-ethyl-2,4-dioxo-1,2,3,4-tetrahydroquinazolin-7-yl)methyl)piperazin-1-yl)-6-fluoro-N,N-dimethylpicolinamide] | < 6.00
CCn1c(=O)[nH]c2cc(-c3cc(F)cc(C(=O)Nc4ccc(C(=O)NC)nc4)c3)ccc2c1=O [Example 43, 5-(3-(3-ethyl-2,4-dioxo-1,2,3,4-tetrahydroquinazolin-7-yl)-5-fluorobenzamido)-N-methylpicolinamide] | < 6.00
CCn1c(=O)[nH]c2cc(-c3cccc(C(=O)Nc4ccc(C(=O)NC)nc4)c3)cnc2c1=O [Example 45, 5-(3-(3-ethyl-2,4-dioxo-1,2,3,4-tetrahydropyrido[3,2-d]pyrimidin-7-yl)benzamido)-1-methylpicolinamide] | < 6.00
CCn1c(=O)[nH]c2cc(-c3cccc(C(=O)Nc4ccc(C(=O)NC)nc4)n3)ccc2c1=O [Example 46, 6-(3-ethyl-2,4-dioxo-1,2,3,4-tetrahydroquinazolin-7-yl) -N-(6-(methylcarbamoyl)pyridin-3-yl)picolinamide] | 6.00 to 7.00
CCn1c(=O)[nH]c2cc(CN3CCN(c4cnc(C(=O)NC)cc4C)CC3)ccc2c1=O [Example 50, 5-(4-((3-ethyl-2,4-dioxo-1,2,3,4-tetrahydroquinazolin-7-yl)methyl)piperazin-1-yl)-N,4-dimethylpicolinamide] | < 6.00
CCn1c(=O)[nH]c2cc(CN3CCN(c4cnc(C(=O)NC)c(C)c4)CC3)ccc2c1=O [Example 51, 5-(4-((3-ethyl-2,4-dioxo-1,2,3,4-tetrahydroquinazolin-7-yl)methyl)piperazin-1-yl)-N,3-dimethylpicolinamide] | < 6.00
CCn1c(=O)[nH]c2cc(CN3CCN(c4ccc(C(=O)NC)nc4C)CC3)c(C)cc2c1=O [Example 52, 5-(4-((3-ethyl-6-methyl-2,4-dioxo-1,2,3,4-tetrahydroquinazolin-7-yl)methyl)piperazin-1-yl)-N,6-dimethylpicolinamide] | < 6.00
CCn1c(=O)[nH]c2cc(CN3CCN(c4ccc(C(=O)NC)nc4C)CC3)c(Cl)cc2c1=O [Example 53, 5-(4-((6-chloro-3-ethyl-2,4-dioxo-1,2,3,4-tetrahydroquinazolin-7-yl)methyl)piperazin-1-yl)-N,6-dimethylpicolinamide] | < 6.00
CCn1c(=O)[nH]c2cc(CN3CCN(c4ccc(C(=O)NC)nc4C)CC3)cc(F)c2c1=O [Example 56, 5-(4-((3-ethyl-5-fluoro-2,4-dioxo-1,2,3,4-tetrahydroquinazolin-7-yl)methyl)piperazin-1-yl)-N,6-dimethylpicolinamide] | 7.00 to 8.00
CCn1c(=O)[nH]c2cc(CN3CCN(c4cnc(C(=O)NC)cn4)CC3)ccc2c1=O [Example 57, 5-(4-((3-ethyl-2,4-dioxo-1,2,3,4-tetrahydroquinazolin-7-yl)methyl)piperazin-1-yl)-N-methylpyrazine-2-carboxamide] | < 6.00
CCn1c(=O)[nH]c2cc(CN3CCC(c4ccc(C(=O)NC)nc4C)CC3)ccc2c1=O [Example 58, 5-(1-((3-ethyl-2,4-dioxo-1,2,3,4-tetrahydroquinazolin-7-yl)methyl)piperidin-4-yl)-N,6-dimethylpicolinamide] | < 6.00
CCn1c(=O)[nH]c2cc(CN3CCN(c4ccc(C(=O)NC)nc4C)CC3)cc(Cl)c2c1=O [Example 59, 5-(4-((5-chloro-3-ethyl-2,4-dioxo-1,2,3,4-tetrahydroquinazolin-7-yl)methyl)piperazin-1-yl)-N,6-dimethylpicolinamide] | 7.00 to 8.00
CCn1c(=O)[nH]c2cc(CN3CCN(c4ccc(C(=O)NC)nc4Cl)CC3)c(Cl)cc2c1=O [Example 65, 6-chloro-5-(4-((6-chloro-3-ethyl-2,4-dioxo-1,2,3,4-tetrahydroquinazolin-7-yl)methyl)piperazin-1-yl)-N-methylpicolinamide] | 6.00 to 7.00
CCn1c(=O)[nH]c2cc(CN3CCN(c4ccc(C(=O)NC)nc4Cl)CC3)c(C)cc2c1=O [Example 66, 6-chloro-5-(4-((3-ethyl-6-methyl-2,4-dioxo-1,2,3,4-tetrahydroquinazolin-7-yl)methyl)piperazin-1-yl)-N-methylpicolinamide] | 6.00 to 7.00
CCn1c(=O)[nH]c2cc(CN3CCN(c4ccc(C(=O)NC)cc4)CC3)ccc2c1=O [Example 68, 4-(4-((3-ethyl-2,4-dioxo-1,2,3,4-tetrahydroquinazolin-7-yl)methyl)piperazin-1-yl)-N-methylbenzamide] | < 6.00

Reference: patent US20240208969A1, “SUBSTITUTED FUSED BICYCLIC COMPOUNDS AS PARP INHIBITORS AND THE USE THEREOF” (IMPACT THERAPEUTICS (SHANGHAI), INC., priority 2021, published 2024)
